Test results taken from publication PMC11184559, “Identification and Validation of Compounds Targeting Leishmania major Leucyl-Aminopeptidase M17” (ACS Infectious Diseases, 2024).
Read-outs that look alike come from different tables or passages of the source.

How the values were obtained:
[1] = test system: LmLAP-overexpressing L. major promastigotes; assay type: cell-based, Leishmania major; settings: compound at EC50, 72 h, n = 70 cells per condition
Procedure: L. major promastigotes (WT and LmLAP OE) were grown in supplemented HOMEM media as described above, in T25 flasks. […] L. major WT cells were grown at control conditions. Briefly, cells were fixed directly in culture media with 3% (v/v) paraformaldehyde for 15 min at room temperature, washed three times with excess D-PBS, permeabilized with 0.2% Triton X-100 (v/v) in PBS for 5 min, and washed three times in excess PBS. Slides were mounted with mounting medium with DAPI (Vectashield Lab H-1000–10). Microscopy was carried out on a Zeiss microscope and images captured using software Zen Blue (Zeiss). Analysis of images and figure preparation were made in Omero.[71]

[2] = test system: parental (WT) L. major promastigotes; test: Drug sensitivity assay (resazurin), parental L. major promastigotes; assay type: cell-based
Procedure: L. major promastigotes were cultured in HOMEM (Gibco) supplemented with 10% heat inactivated FBS at 28 °C.
L. major promastigotes were seeded in 96-well plates at 5 × 10^4/mL, exposed to 2-fold serial dilutions of test compounds, and incubated at 28 °C for 72 h. Resazurin was, then, added to each well to a final concentration of 50 μM, and fluorescence was measured after 2–3 h (excitation of 528 nm and emission of 590 nm). The EC50 was calculated by processing the collected data by GRAFIT (version 5.0.4, Erithacus Software) and fitting them to the following two-parameter equation: [drawing 6] 6 where [I] is the inhibitor concentration, and m is the slope. Experiments were performed on at least three independent biological replicates. Data are presented as the weighted mean ± standard deviation.

[3] = test system: LmjF.35.1670 (60S ribosomal protein L26, putative); test: Isothermal TPP (iTPP) thermal stabilization, LmjF.35.1670; assay type: binding, Leishmania major; settings: L. major promastigote lysate, 47 °C, compound at 10× EC50 vs DMSO
Procedure: (§1) Cell lysates were obtained as detailed above. Isothermal TPP assays were performed as previously described[29] but here lysates were incubated at two temperatures: 28 and 47 °C. The first temperature (28 °C) acts as a control temperature at which the protein levels are not altered by the presence of the test compound. The second temperature (47 °C) is the Leishmania spp. median Tm (melting temperature or temperature 50%) according to our interim data. […] These samples were aliquoted and submitted to a temperature shock at the designated temperature for 3 min, then 3 min at room temperature, and finally 3 min on ice. The soluble part was isolated by ultracentrifugation (100,000g, 20 min, 4 °C).
(§2) All aspects of sample processing, TMT-labeling, fractionation by HPLC into 10 fractions, LC-MS/MS, and protein identification and quantitation were described previously.[28],[68] Proteins with less than three peptides and those with increased stability at 28 °C were disregarded.
Proteins were identified by searching the MS and MS/MS data for the peptides against L. major strain Friedlin (TriTryp version 61, tritrypdb.org) using MaxQuant (http://maxquant.org/, version 2.1.4.0). All proteomics data sets have been deposited to the ProteomeXchange Consortium via the PRIDE[69] partner repository with the identifier PXD00000. Data were analyzed with Perseus v 1.6.15.[70] The reporter intensities of each protein were extracted and normalized to the control temperature reporter intensity (28 °C), then these normalized values were used to calculate the log2 transformed fold-changes (FC) of […] samples. Proteins stabilized (log2 FC > 1 in both replicates) were selected as putative hits.

[4] = test system: RAW 264.7 murine macrophages; settings: 100 μM, 48 h, MTT
Description: Blank contains only culture medium. […] Each assay was developed in triplicate.

[5] = test system: LmjF.23.0040 (peroxidoxin); test: Isothermal TPP (iTPP) thermal stabilization, LmjF.23.0040; assay type: binding, Leishmania major; settings: L. major promastigote lysate, 47 °C, compound at 10× EC50 vs DMSO
Procedure: as §1, §2
Proteins were identified by searching the MS and MS/MS data for the peptides against L. major strain Friedlin (TriTryp version 61, tritrypdb.org) using MaxQuant (http://maxquant.org/, version 2.1.4.0). All proteomics data sets have been deposited to the ProteomeXchange Consortium via the PRIDE[69] partner repository with the identifier PXD00000. Data were analyzed with Perseus v 1.6.15.[70] […]

[6] = Leishmania major; value of the specific curve shown in Figure 4; read-out: EC50 (WT), representative curve

SMILES	Frequency of elongated 1K1N1F forms in LmLAP-overexpressing cells [1] [%]	EC50 ([2]; Leishmania major, 72 h, resazurin; weighted mean ± SD (n = 5); read-out: EC50 (weighted mean), parental (WT) L. major promastigotes) [µM]	EC50 [2, 6] [µM]	Enrichment (log2) replica A, LmjF.35.1670 [3] [log2]	Enrichment (log2) replica B, LmjF.35.1670 [3] [log2]	Maximum inhibitory effect, RAW 264.7 macrophage cell line [4] [%]	EC50 ([2]; Leishmania major; 72 h, resazurin; weighted mean ± SD (n = 5); read-out: EC50 (weighted mean), parental (WT) L. major promastigotes) [µM]	Enrichment (log2) replica A, LmjF.23.0040 [5] [log2]	Enrichment (log2) replica B, LmjF.23.0040 [5] [log2]
COc1ccc(Cc2c(N)nc(-c3ccccn3)nc2N)cc1 [DDD00057570]	~36	1.8 ± 0.2	1.1 ± 0.2	1.36	1.64	52			
O=C(c1cccs1)N(CCCn1ccnc1)c1nc2ccccc2s1 [DDD00097924]	~36		1.83 ± 0.2	1.71	1.97		3 ± 0.2	1.31	1.21
